Molecular target: human plasma protein factor Xa (Homo sapiens (Human), UniProt P00742)
Assay: FXa inhibitory activity, IC50 determination (cleavage of paranitroanilide substrate S-2765)
Format: biochemical
Conditions: factor Xa 1 nM, S2765 100 μM, Tris buffered saline pH 7.4
Text: This example illustrates methods for evaluating the compounds, along with results obtained for such assays. As mentioned above, the compound may be selected based on its factor Xa inhibitory activity. The in vitro factor Xa activities of the compounds can be determined by various procedures known in the art. […] The IC50 value is the concentration (in nM) of the compound required to provide 50% inhibition of factor Xa proteolytic activity.
An in vitro assay for detecting and measuring inhibition activity against factor Xa is as follows:
The substrate S-2765 (Z-D-Arg-Gly-Arg-pNA.HCl) can be obtained from Diapharma (West Chester, Ohio).
The human plasma protein factor Xa can be purchased from Haematologic Technologies (Essex Junction, Vt.).
All assays, which are performed in 96-well microtiter plates, measure proteolytic activity of the enzyme (factor Xa) by following cleavage of a paranitroanilide peptide substrate. The assay buffer used for proteolytic assays was Tris buffered saline (20 mM Tris, 150 mM NaCl, 5 mM CaCl2, 0.1% Bovine serum albumin (BSA), 5% dimethly sulfoxide (DMSO) pH 7.4). In a 96-well microtiter plate, inhibitor was serially diluted to give a range of final concentrations from 0.01 nM to 10 μM. Duplicate sets of wells were assayed and control wells without inhibitor were included. Enzyme was added to each well, (factor Xa concentration=1 nM), the plate was shaken for 5 seconds and then incubated for 5 minutes at room temperature. S2765 was added (100 μM final) and the plate was shaken for 5 seconds (final volume in each well was 200 μL). The degree of substrate hydrolysis was measured at 405 nm on a Thermomax plate reader (Molecular Devices, Sunnyvale, Calif.) for 2 minutes. The initial velocities of substrate cleavage (mOD/min), for each range of inhibitor concentrations, were fitted to a four parameter equation using Softmax data analysis software. The parameter C, derived from the resulting curve-fit, corresponded to the concentration for half maximal inhibition (IC50).

Sequence of human plasma protein factor Xa (P00742 41-179): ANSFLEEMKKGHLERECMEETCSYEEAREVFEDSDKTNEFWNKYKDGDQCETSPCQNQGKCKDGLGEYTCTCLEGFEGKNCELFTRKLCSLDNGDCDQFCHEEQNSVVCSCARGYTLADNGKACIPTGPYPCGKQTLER
Sequence of human plasma protein factor Xa (P00742 235-488): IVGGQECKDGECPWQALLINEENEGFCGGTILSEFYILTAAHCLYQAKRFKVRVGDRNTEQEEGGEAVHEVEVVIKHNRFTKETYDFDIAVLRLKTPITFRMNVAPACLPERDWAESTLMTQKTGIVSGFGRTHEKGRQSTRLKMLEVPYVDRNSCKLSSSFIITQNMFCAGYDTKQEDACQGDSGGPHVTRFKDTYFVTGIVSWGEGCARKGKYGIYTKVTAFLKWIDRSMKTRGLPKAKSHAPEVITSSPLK

Row | Structure (SMILES) | IC50 [nM]
1 | CN(C)C(=N)c1ccc(C(=O)Nc2ccc(OCC(=O)NCCCCCCN)cc2C(=O)Nc2ccccn2)cc1 | 227
2 | NCCCCCCNc1cc(C(F)(F)F)ccc1C(=O)Nc1ccc(Cl)cc1C(=O)Nc1ccc(Cl)cn1 | 615
3 | CS(=O)(=O)c1ccc(C(=O)Nc2ccc(Cl)cc2C(=O)Nc2ccc(Cl)cn2)c(NCCCCCCCN)c1 | 320

Compounds with a lower IC50, results first:

Row | IC50 [nM] | Structure (SMILES)
4 | 158 | CS(=O)(=O)c1ccc(C(=O)Nc2ccc(Cl)cc2C(=O)Nc2ccc(Cl)cn2)c(NCCCCCCN)c1
5 | 24 | CN(C)C(=N)c1ccc(C(=O)Nc2ccc(OCC(=O)NCCCCCCN)cc2C(=O)Nc2ccc(Cl)cn2)cc1

— patent publication US9200268B2, “Compounds and methods for purification of serine proteases” (Portola Pharmaceuticals, Inc., priority 2012, dated 2015)
